Read-outs that look alike come from different tables or passages of the source. Values belong to the compound of their own block, whether it stands above or below them.
Columns and labels:
[1] = molecular target: BTK mutation-type C481S kinase (Homo sapiens (Human), UniProt Q06187, C481S); assay: BTK-C481S kinase activity inhibition test in vitro (Caliper EZ Reader); type: biochemical
Protocol: In the tests on the activity of inhibiting BTK and HER2 kinase in vitro in the examples of the present disclosure, powder of the compound was dissolved in 100% DMSO to prepare a 10 mM stock solution and stored at-20° C. in the dark. […] In addition, the compounds were subjected to experiments such as liver microsome metabolic stability, rat PK, rat brain penetration rate, and drug efficacy model in the examples of the present disclosure.
Compound powders were dissolved in 100% DMSO to make 10 mM stock solutions, which were stored at -20° C. in the dark.
2: Kinase Reaction Process
(1) Preparation of 1 × Kinase buffer.
(5) After centrifugation at 1000 rpm for 30 seconds, the reaction plate was shaken to mix well and incubated at room temperature for 10 min.
(6) A 5/3-fold final concentration of a mixed solution of ATP and Kinase substrate 2 was prepared with 1 × Kinase buffer.
(7) 15 µL of the mixed solution of ATP and substrate with 5/3-fold final concentration was added to start the reaction.
(8) The 384-well plate was centrifuged at 1000 rpm for 30 seconds, shaken to mix well, and incubated at room temperature for 10 min.
(9) 30 µL of a stop solution was added to stop the kinase reaction, and after centrifugation at 1000 rpm for 30 seconds, the plate was shaken to mix well;
(10) The conversion rate was read with Caliper EZ Reader.
where Conversion%_sample indicates the conversion rate reading of the sample; Conversion%_min is the average reading of the negative control wells, representing the conversion rate reading of the wells without enzyme activity; Conversion%_max is the average reading of the ratio of the positive control wells, representing the conversion rate reading of the wells without compound inhibition.
Dose-Response Curve Fitting
With the log value of the concentration as the X-axis, and the percentage inhibition rate as the Y-axis, the dose-effect curve was fitted using the log(inhibitor) vs. response-Variable slope of the analysis software GraphPad Prism 5, so as to determine the IC50 value of each compound on the enzyme activity.
The calculation formula was: […]

[2] = molecular target: BTK wild-type kinase (Homo sapiens (Human), UniProt Q06187); assay: BTK kinase activity inhibition test in vitro (Caliper EZ Reader); type: biochemical
Outline: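 Compound (10 mM DMSO stock) preincubated with kinase 10 min at room temperature, then ATP plus kinase substrate 2 added, 10 min reaction at room temperature before stop. Substrate conversion read by Caliper mobility shift; inhibition normalised to no-enzyme and no-compound controls, IC50 by variable-slope log(inhibitor) fit.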

[3] = system: TMD8 cell proliferation; assay: In vitro cell proliferation inhibitory activity test (CTG), TMD8; type: cell-based, human; conditions: TMD8 cells, 72 h
Protocol: Test Example 4: In Vitro Cell Proliferation Inhibitory Activity Test
Cells were cultured in 1640 medium, added with 10% inactivated FBS and 1% double antibiotics, and cultured at 37° C. and 5% CO2.
(1) Cells were routinely cultured until the cell density was 80%-90%, and the cells were harvested when their number reached the requirement.
(2) Cells were resuspended with corresponding culture medium, counted, and prepared into cell suspension at appropriate density.
(3) The cell suspension was added to a 96-well plate, 100 µL per well.
(4) Cells were cultured overnight in a 37° C., 5% CO2 incubator.
(1) The compounds to be tested were diluted with DMSO to make a stock solution with a final concentration of 20 mM for later use.
(2) The stock solution was diluted 10 times from 20 mM to 2 mM with DMSO, and then diluted 3 times from 2 mM to 9 concentrations.
(3) The blank control wells were cells plus 0.5% DMSO, as high-reading control wells.
(4) Wells with no cells and only medium were used as low-reading control wells.
4: Cell Treatment With Compound
(1) 24 h after the cells were plated, the compounds acted alone, and 99 µL of growth medium was added to each well, followed by 1 µL of the compound prepared in step 3. The plate was shaken gently to mix uniformly, and then placed in a 37° C., 5% CO2 incubator.
(2) The cell plate was placed in an incubator for 72 h.
5: Detection by CTG Method
(1) The cell plate to be tested was placed at room temperature for 30 min, and 100 µL of medium was discarded from each well.
(2) 100 µL of CTG reagent (CelltiterGlo kit) was added to each well, placed on a fast shaker for 2 min, and stood at room temperature in the dark for 30 min.
(3) The chemiluminescent signal value was read with the Envision instrument.
IC50 was calculated by using GraphPad Prism 8 software. The IC50 (half inhibitory concentration) of the compound was derived using the following nonlinear fitting formula, and the results are shown in the following table: […]

[4] = Liver microsome metabolic stability test, human; type: in vitro ADME
Protocol: (§1) 1: To the sample wells of T0, T5, T10, T20, T30, T60 and NCF60, 10 µL of the test or reference working solution and 80 µL of microsome working solution (hepatic microsome with a protein concentration of 0.5 mg/mL) were added, and to Blank60 well, only the microsome working solution was added. Then samples of the Blank60, T5, T10, T20, T30 and T60 other than T0 and NCF60 were placed in a 37° C. water bath and pre-incubated for about 10 min.
(§2) 2: To the T0 sample well, 300 µL of stop solution (containing 200 ng/mL tolbutamide and 200 ng/mL labetalol in acetonitrile solution) was added first, followed by 10 µL of NADPH regeneration system working solution.
(§3) 3: After the pre-incubation of Blank60, T5, T10, T20, T30 and T60 incubation plates, 10 µL of NADPH regeneration system working solution was added to each sample well to start the reaction, and 10 µL of 100 mM potassium phosphate buffer was added to the NCF60 sample well.
(§4) 4: After incubation for an appropriate time (such as 5, 10, 20, 30 and 60 min), to each test sample well and control well of the Blank60, T5, T10, T20, T30, T60 and NCF60 plates, 300 µL of stop solution was added to terminate the reaction.
(§5) 5: All sample plates were shaken to mix well and centrifuged at 4000 rpm for 20 min, and 100 µL of the supernatant of the test sample or control sample was taken and diluted with 300 µL of pure water for LC-MS/MS analysis.
(§6) 6: Data analysis: T½ and CLint(mic) (µL/min/mg) values were calculated according to the first-order elimination kinetics. The first-order elimination kinetics equation was: […]

[5] = Pharmacokinetic test, oral, SD rats; type: in vivo; conditions: oral 10 mg/kg, plasma
Outline: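 Male/female status unstated; SD rats (3 per group) dosed orally at 10 mg/kg after overnight fast, refed 4 h post-dose. Plasma from serial blood draws stored at -20° C, protein-precipitated with internal standard solution and quantified by LC-MS/MS.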

[6] = Liver microsome metabolic stability test, rat; type: in vitro ADME
Protocol: as §1, §2, §3, §4, §5, §6

[7] = system: DOHH-2-luc tumor cells in the mouse brain; assay: DOHH-2-Luc intracerebral tumor drug efficacy model test; type: in vivo
Protocol: Test Example 8: DOHH-2-Luc Intracerebral Tumor Drug Efficacy Model Test
DOHH-2-luc tumor cells were cultured in vitro with RPMI 1640 medium containing 10% fetal bovine serum and 500 ng/mL puromycin in a 37° C., 5% CO2 incubator. […] Tumor cells in logarithmic growth phase were used for inoculation of tumors in vivo.
2. Inoculation of Tumor Cell and Grouping
After the animal was anesthetized by intramuscular injection of Zoletil, it was fixed on the operating table in a prone position. The skin on the top of the head was disinfected with iodine and 75% alcohol respectively, and the skin was cut about 0.5 cm along the midline of the head to expose the coronal and sagittal lines. Being located about 0.5-1.0 mm above the coronal line and about 2 mm to the right of the sagittal line by using a brain locator, a hole was drilled with a 1 mL syringe needle. The micro-injector was inserted vertically to a depth of 3 mm at the location, slowly (about 1 min) injected with 3 × 10^5 DOHH-2-luc tumor cells /2 µL suspension and kept for 1 min. After pulling out the needle, the needle hole was quickly sealed with bone wax, and the wound was sutured with a stapler. About the 7th day after tumor inoculation, the animals were randomly divided into 5 groups according to the body weight of the animals and the optical signal intensity of the tumor site, with 5 animals in each group.
The mice were imaged 1-2 times a week according to their state using the small animal in vivo imaging system IVIS Lumina III (Perkin Elmer). The bioluminescence imaging (BLI, unit: photons/s) signal intensity at the tumor cell inoculation site of mouse was monitored as the main indicator for evaluating tumor growth and drug efficacy. The specific operation is as follows:
The mice were intraperitoneally injected with D-luciferin (15 mg/mL, 5 µL/g according to the body weight of the experimental animal), and then inhaled anesthetized with 1%-2% isoflurane. 10 min after the injection of D-luciferin, the animals were imaged with IVIS Lumina III. The data were analyzed and processed using Living Image software (Perkin Elmer), and the optical signal intensity in ROI (regions of interest) of each animal was calculated.

[8] = system: TMD8 mouse subcutaneous xenograft tumor; assay: TMD8 pharmacodynamic model test (mouse subcutaneous xenograft tumor); type: in vivo
Protocol: Test Example 7: TMD8 Pharmacodynamic Model Test
Human diffuse large B-cell lymphoma TMD8 cells were monolayer-cultured in vitro in RPMI1640 medium with 10% fetal bovine serum, 100 U/mL penicillin and 100 µg/mL streptomycin, in a 37° C., 5% CO2 incubator. Routine digestion with trypsin-EDTA was performed twice a week for passaging. When the cell density was 80%-90% and the number reached the requirement, cells were harvested, counted and inoculated. 0.2 ml (1×10^7 cells) of TMD8 cells (added with matrigel at a volume ratio of 1:1) were subcutaneously inoculated on the right back of each mouse. The mice were administered in groups when the average tumor volume reached about 137 mm^3. Tumor diameters were measured twice a week with vernier calipers. The tumor volume was calculated by the formula V = 0.5 a × b^2, where a and b represent the long and short diameters of the tumor, respectively.

[9] = dog PK experiments; cited from earlier work
[10] = liver microsomes, 0.5 mg/mL protein, read-out: T½

BTK wild-type kinase, sequence (Q06187 whole entry): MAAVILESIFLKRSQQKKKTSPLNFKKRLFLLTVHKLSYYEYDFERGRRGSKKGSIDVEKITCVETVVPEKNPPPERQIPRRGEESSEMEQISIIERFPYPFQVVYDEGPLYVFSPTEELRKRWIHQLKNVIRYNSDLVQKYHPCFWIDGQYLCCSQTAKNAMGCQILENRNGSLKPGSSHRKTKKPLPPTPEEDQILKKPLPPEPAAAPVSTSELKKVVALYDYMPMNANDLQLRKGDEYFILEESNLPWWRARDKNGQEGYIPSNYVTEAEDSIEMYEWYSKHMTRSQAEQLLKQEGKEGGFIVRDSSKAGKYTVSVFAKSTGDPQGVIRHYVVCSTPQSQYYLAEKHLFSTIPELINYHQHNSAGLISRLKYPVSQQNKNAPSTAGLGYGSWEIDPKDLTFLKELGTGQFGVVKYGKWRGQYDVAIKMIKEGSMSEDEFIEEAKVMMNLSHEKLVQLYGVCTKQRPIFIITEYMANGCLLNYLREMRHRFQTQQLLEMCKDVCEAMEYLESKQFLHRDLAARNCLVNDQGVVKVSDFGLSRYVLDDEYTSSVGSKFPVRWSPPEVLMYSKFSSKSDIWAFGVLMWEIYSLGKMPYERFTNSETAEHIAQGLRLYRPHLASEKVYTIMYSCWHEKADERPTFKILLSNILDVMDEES
BTK mutation-type C481S kinase, sequence (Q06187 whole entry C481S): as the sequence (Q06187 whole entry) above, with C481S counted along it

IC50 [1]: < 5 nM
IC50 [2]: < 5 nM
CLint [4]: <9.6 µL/min/mg
T½ ([4]; 0.5 mg/mL protein): >2.42 h
%Remaining (60 min) [4]: 122.5%
AUC(0-∞) [5]: 77004 ng·h/mL
Cl [5]: 2.18 mL/min/kg
Cmax [5]: 25188 ng/mL
T½ [5]: 2.21 h
CLint [6]: <9.6 µL/min/mg
T½ ([6]; 0.5 mg/mL protein): >2.42 h
%Remaining (60 min) [6]: 95.5%
Structure (SMILES): Nc1nccn2c([C@@H]3CC[C@H](CO)OC3)nc(-c3ccc(C(=O)Nc4ccccn4)cc3)c12 (single isomer, unassigned) [Compound 2-A-P1]
IC50 [3]: 61.9 nM

IC50 [1]: < 5 nM
IC50 [2]: < 5 nM
Structure (SMILES): Nc1nccn2c(C3CCC(CO)OC3)nc(-c3ccc(C(F)(F)c4ccccc4)cc3)c12 (single isomer, unassigned) [Compound 111-P1]
IC50 [3]: 71.9 nM
inhibitory effect against the tumor compared with Tirabrutinib ([7]; DOHH2 tumor model in the mouse brain, same dose of 30 mg/kg (BID), FIG. 3): significantly better inhibitory effect against the tumor
tumor size in the brain by fluorescence image ([7]; DOHH-2-Luc intracerebral model, same dose, FIG. 4): very good inhibitory effect against the tumor
side effects ([7]; mouse, 30 mg/kg (BID), after 21 days of administration): no side effects
TGI (tumor inhibition rate) ([8]; 20 mg/kg): 93%
TGI relative to that of Tirabrutinib ([8]; 20 mg/kg): ~2 times
inhibitory effect against the tumor compared with Tirabrutinib ([8]; same dose of 20 mg/kg, FIG. 2): significantly better inhibitory effect against the tumor

%Remaining (60 min) [4]: 94.2%
half-life [4, 10]: > 2.42 h
Cl [5]: 10.3 mL/min/kg
AUC(0-inf) ([5]; rat): 16200 ng·h/mL
Cmax ([5]; rat, read-out: Cmax): 2410 ng/mL
half-life ([5]; rat, read-out: T½ (converted)): 3.98 h
%Remaining (60 min) [6]: 81.1%
half-life [6, 10]: > 2.42 h
Structure (SMILES): O=C(c1ccc(Oc2ccccc2)cc1Cl)c1c[nH]c2ncnc(N[C@@H]3CC[C@@H](CO)OC3)c12 [ARQ-531, reference compound]
bioavailability [9]: 38%

— patent publication US20230364079A1, “COMPOUND AS BRAIN-PERMEABLE BTK OR HER2 INHIBITOR, PREPARATION METHOD THEREFOR, AND USE THEREOF” (CHENGDU HYPERWAY PHARMACEUTICALS CO., LTD., priority 2020, published 2023)
